# System: Hepatitis C virus
# Assay: Antiviral activity against HCV genotype 1b expressing wild type NS3-NS5B infected in HuH7 luc/neo cells assessed as inhibition of RNA replication after 3 days by luciferase reporter gene assay
# Type: functional, organism-based, Hepacivirus hominis
# Settings: Huh-7, 72 h
row,Structure (SMILES),EC50 [µM]
1,C[C@H](NP(=O)(OC[C@H]1O[C@@H](n2ccc(=O)[nH]c2=O)[C@](C)(N)[C@@H]1O)Oc1ccccc1)C(=O)OC1CCCCCC1 (stereo partly drawn),0.19
2,C[C@H](NP(=O)(OC[C@H]1O[C@@H](n2ccc(=O)[nH]c2=O)[C@](C)(NC(=O)OC(C)(C)C)[C@@H]1O)Oc1ccccc1)C(=O)OCCC(C)(C)C (stereo partly drawn),2.3
3,C[C@H](NP(=O)(OC[C@H]1O[C@@H](n2ccc(=O)[nH]c2=O)[C@](C)(NC(=O)OC(C)(C)C)[C@@H]1O)Oc1ccccc1)C(=O)OC1CCCCCCC1 (stereo partly drawn),15
4,C[C@H](NP(=O)(OC[C@H]1O[C@@H](n2ccc(=O)[nH]c2=O)[C@](C)(N)[C@@H]1O)Oc1ccccc1)C(=O)OC1CCCC1 (stereo partly drawn),0.47
5,C[C@H](NP(=O)(OC[C@H]1O[C@@H](n2ccc(=O)[nH]c2=O)[C@](C)(N)[C@@H]1O)Oc1ccccc1)C(=O)OCCC(C)(C)C (stereo partly drawn),0.49
6,C[C@H](NP(=O)(OC[C@H]1O[C@@H](n2ccc(=O)[nH]c2=O)[C@](C)(N)[C@@H]1O)Oc1ccccc1)C(=O)OC1CCCCCCC1 (stereo partly drawn),0.29
7,C[C@H](NP(=O)(OC[C@H]1O[C@@H](n2ccc(=O)[nH]c2=O)[C@](C)(NC(=O)OC(C)(C)C)[C@@H]1O)Oc1ccccc1)C(=O)OC1CCCC1 (stereo partly drawn),4.7
8,C[C@H](NP(=O)(OC[C@H]1O[C@@H](n2ccc(=O)[nH]c2=O)[C@](C)(NC(=O)OC(C)(C)C)[C@@H]1O)Oc1ccccc1)C(=O)OC1CCCCCC1 (stereo partly drawn),3

# From ChEMBL document CHEMBL3120052, “HCV polymerase inhibitors” (ACS Med Chem Lett, 2014)
